Experimental data as given in paper PMC9487510, “A Novel Oral GyrB/ParE Dual Binding Inhibitor Effective against Multidrug-Resistant Neisseria gonorrhoeae and Other High-Threat Pathogens” (Antimicrobial Agents and Chemotherapy, 2022).
Values after ≈ are worked out from the molar mass of the structure shown. Read-outs that look alike come from different tables or passages of the source.

What was measured:
[1] = tested on: N. gonorrhoeae clinical isolates; test: MIC, agar dilution (CLSI); type: cell-based, Neisseria gonorrhoeae; settings: Neisseria gonorrhoeae; for MIC: read-out: MIC
[2] = Kinetic aqueous solubility; type: physicochemical; settings: aqueous medium (not further specified)
[3] = tested on: vancomycin-resistant enterococci (VRE); test: MIC, in vitro susceptibility testing (CLSI); type: cell-based; settings: Enterococcus
B. anthracis = test: microbe, parasite or virus in culture; type: cell-based; settings: for MIC: Bacillus anthracis

Structure (SMILES): CNc1cc(F)cc2c1[nH]c1nc(Oc3cnc(C)nc3)nc(N3CCC4(CC3)CO[C@@H](CO)C4)c12 [JSF-2414]
- MIC ([1]; strain CDC53 (GCREF2012 051)): 7.8 ng/mL (≈ 0.0158 µM)
- MIC ([1]; strain CDC54 (GCREF2012 052)): 3.9 ng/mL (≈ 0.0079 µM)
- MIC ([1]; strain CDC55 (GCREF2013 001)): 7.8 ng/mL (≈ 0.0158 µM)
- MIC ([1]; strain CDC56 (GCREF2013 002)): 3.9 ng/mL (≈ 0.0079 µM)
- MIC ([1]; strain CDC57 (GCREF2013 003)): 3.9 ng/mL (≈ 0.0079 µM)
- MIC ([1]; strain CDC58 (GCREF2013 004)): 2 ng/mL (≈ 0.00405 µM)
- MIC ([1]; strain CDC59 (GCREF2013 044)): 2 ng/mL (≈ 0.00405 µM)
- MIC ([1]; strain CDC60 (GCREF2013 005)): 7.8 ng/mL (≈ 0.0158 µM)
- MIC ([1]; strain CDC61 (GCREF2013 006)): 7.8 ng/mL (≈ 0.0158 µM)
- MIC ([1]; strain CDC62 (GCREF2013 007)): 16 ng/mL (≈ 0.0324 µM)
- MIC ([1]; strain CDC63 (GCREF2013 008)): 7.8 ng/mL (≈ 0.0158 µM)
- MIC ([1]; strain CDC64 (GCREF2013 009)): 16 ng/mL (≈ 0.0324 µM)
- MIC ([1]; strain CDC65 (GCREF2013 010)): 7.8 ng/mL (≈ 0.0158 µM)
- MIC ([1]; strain CDC66 (GCREF2013 011)): 16 ng/mL (≈ 0.0324 µM)
- MIC ([1]; strain CDC67 (GCREF2013 014)): 7.8 ng/mL (≈ 0.0158 µM)
- MIC ([1]; strain CDC68 (GCREF2013 016)): 2 ng/mL (≈ 0.00405 µM)
- MIC ([1]; strain CDC69 (GCREF2013 017)): 2 ng/mL (≈ 0.00405 µM)
- MIC ([1]; strain CDC70 (GCREF2013 018)): 3.9 ng/mL (≈ 0.0079 µM)
- MIC ([1]; strain CDC71 (GCREF2013 019)): 16 ng/mL (≈ 0.0324 µM)
- MIC ([1]; strain CDC72 (GCREF2013 020)): 7.8 ng/mL (≈ 0.0158 µM)
- MIC ([1]; strain CDC73 (GCREF2013 021)): 16 ng/mL (≈ 0.0324 µM)
- MIC ([1]; strain CDC74 (GCREF2013 022)): 16 ng/mL (≈ 0.0324 µM)
- MIC ([1]; strain CDC75 (GCREF2013 023)): 7.8 ng/mL (≈ 0.0158 µM)
- MIC ([1]; strain CDC76 (GCREF2013 024)): 7.8 ng/mL (≈ 0.0158 µM)
- MIC ([1]; strain CDC77 (GCREF2013 025)): 7.8 ng/mL (≈ 0.0158 µM)
- MIC ([1]; strain CDC78 (GCREF2013 026)): 0.5 ng/mL (≈ 0.00101 µM)
- MIC ([1]; strain CDC79 (GCREF2013 027)): 3.9 ng/mL (≈ 0.0079 µM)
- MIC ([1]; strain CDC80 (GCREF2013 028)): 3.9 ng/mL (≈ 0.0079 µM)
- MIC ([1]; strain CDC81 (GCREF2013 029)): 3.9 ng/mL (≈ 0.0079 µM)
- MIC ([1]; strain CDC82 (GCREF2013 031)): 7.8 ng/mL (≈ 0.0158 µM)
- MIC ([1]; strain CDC83 (GCREF2013 032)): 16 ng/mL (≈ 0.0324 µM)
- MIC ([1]; strain CDC84 (GCREF2013 033)): 7.8 ng/mL (≈ 0.0158 µM)
- MIC ([1]; strain CDC86 (GCREF2013 035)): 7.8 ng/mL (≈ 0.0158 µM)
- MIC ([1]; strain CDC87 (GCREF2013 036)): 3.9 ng/mL (≈ 0.0079 µM)
- MIC ([1]; strain CDC88 (GCREF2013 037)): 7.8 ng/mL (≈ 0.0158 µM)
- MIC ([1]; strain CDC89 (GCREF2013 038)): 3.9 ng/mL (≈ 0.0079 µM)
- MIC ([1]; strain CDC90 (GCREF2013 039)): 7.8 ng/mL (≈ 0.0158 µM)
- MIC ([1]; strain CDC91 (GCREF2013 040)): 7.8 ng/mL (≈ 0.0158 µM)
- MIC ([1]; strain CDC92 (GCREF2013 041)): 3.9 ng/mL (≈ 0.0079 µM)
- MIC ([1]; strain CDC93 (GCREF2013 042)): 3.9 ng/mL (≈ 0.0079 µM)
- MIC ([1]; strain CDC94 (GCREF2013 043)): 7.8 ng/mL (≈ 0.0158 µM)
- MIC ([1]; strain CDC95 (GCREF2013 045)): 7.8 ng/mL (≈ 0.0158 µM)
- MIC ([1]; strain CDC96 (GCREF2013 046)): 2 ng/mL (≈ 0.00405 µM)
- MIC ([1]; strain CDC97 (GCREF2013 047)): 3.9 ng/mL (≈ 0.0079 µM)
- MIC ([1]; strain CDC98 (GCREF2013 048)): 7.8 ng/mL (≈ 0.0158 µM)
- MIC ([1]; strain CDC99 (GCREF2013 012)): 7.8 ng/mL (≈ 0.0158 µM)
- MIC ([1]; strain CDC100 (GCREF2013 015)): 3.9 ng/mL (≈ 0.0079 µM)
- MIC50 ([1]; 96 clinical isolates, read-out: MIC50): 3.9 ng/mL (≈ 0.0079 µM)
- MIC90 ([1]; 96 clinical isolates, read-out: MIC90): 7.8 ng/mL (≈ 0.0158 µM)
- solubility kinetic [2]: 0.576 µM (≈ 0.284 µg/mL)
- MIC ([3]; strain 2138): > 500 ng/mL
- MIC ([3]; strain 2139): 2 ng/mL (≈ 0.00405 µM)
- MIC ([3]; strain 2927): 8 ng/mL (≈ 0.0162 µM)
- MIC ([3]; strain 2966): 4 ng/mL (≈ 0.0081 µM)
- MIC ([3]; strain 2967): 31 ng/mL (≈ 0.0628 µM)
- MIC ([3]; strain 3090): > 500 ng/mL
- MIC ([3]; strain 3091): 2 ng/mL (≈ 0.00405 µM)
- MIC ([3]; strain 3322): 16 ng/mL (≈ 0.0324 µM)
- MIC (B. anthracis; strain Ames): 49 ng/mL (≈ 0.0993 µM)
- MIC (B. anthracis; strain Vollum V1B): 98 ng/mL (≈ 0.199 µM)
- MIC range (B. anthracis; N = 2): 49 to 98 ng/mL
